Consider one substance from patent US20150031056A1, “DEVELOPMENT OF SPECIFIC IMMUNOASSAY CRITICAL REAGENTS FOR PHARMACOKINETIC ASSESSMENTS OF PEPTIDE POLYMERS IN PRECLINICAL AND CLINICAL MATRICES” (priority 2011, published 2015).

Where “and” joins values, the source holds several entries; their conditions need not be identical. Equal entries are not always repeated.

This series is described as follows: Pilot PK study in Sprague Dawley rats (serum Copaxone by ELISA). Particulars: Copaxone 20 mg/kg B.wt. It is filed as in vivo. As to the method: A series of serum samples, each containing Copaxone spiked at known concentration and forming a set of calibrator standards to generate a calibration curve to quantify Copaxone in the serum samples of the given species was made in the serum with Copaxone at levels […], 30000 ng/ml, 4000 ng/ml, 2000 ng/ml, 1000 ng/ml, 500 ng/ml, 250 ng/ml, 125 ng/ml, 62.5 ng/ml, 31.3 ng/ml, 7.8 ng/ml and 3.9 ng/ml in neat serum.
ELISA plate is precoated with Polyclonal Rabbit Anti Copaxone antibodies and the appropriately diluted serum samples constituting the calibrator standards and samples for analysis were incubated for binding to the coated Anti Copaxone antibodies and unbound and poorly bound serum components were separated during washing with PBST (Phosphate buffered saline with 0.1% tween 20).The bound Copaxone was detected using biotin labeled Polyclonal Rabbit Anti Copaxone antibodies and streptavidin Alkaline phosphatase conjugate. Substrate was added to the wells and the blue colored signal obtained at 640 nm for the test samples is compared with the calibration curve prepared from concentration-response relationship of the calibrators to determine the unknown concentration of Copaxone in the serum samples.
Three male Sprague Dawley rats were dosed with Copaxone at 20 mg per kg body weight with a dosing volume of […] at the dose concentration of 20mg/ml per day. The dosage was selected based on minimum feasible dose (based on dose volume of 1 ml per kg) for the given strength of 20 mg/ml. Each animal was weighed and dosed with Copaxone @ 20 mg/kg B.wt. Blood samples were collected in 10 μl of Protease inhibitor from each animal at the time point 5 min, 10 min, 15 min, 20 min, 30 min, 45 min, 1, 2, 3, 4, 6, 10 and 24 hours. The blood samples were stored on wet ice for serum separation. The serum was separated and stored at −80° C. till the shipment. The samples till 24 hours were shipped in Dry Ice […].

The mark [1] stands for this setting: Mean of three male Sprague Dawley rats.
[2] abbreviates: individual male Sprague Dawley rat (Rat 1, 2, 3).

As for Glatiramer acetate [Copaxone], under setting [1], the AUC0-inf stood at 25507 ng·min/mL, the AUC0-t was found to be 25211.81 ng·min/mL, the “AUC % Extrap_obs (Should be < 5%)” value was determined as 1.24% and the Cmax came to 1824.12 ng/mL. Also, under setting [1], the T1/2 is 27.45 min and the Tmax is 11.67 min. Besides, under setting [2], the AUC0-inf is 25654.06 ng·min/mL and 15705.6 ng·min/mL and 35161.34 ng·min/mL; the AUC0-t is 25491.53 ng·min/mL and 15411.63 ng·min/mL and 34732.28 ng·min/mL; the “AUC % Extrap_obs (Should be < 5%)” value was 0.63% and 1.87% and 1.22%; the Cmax was 968.69 ng/mL and 510.79 ng/mL and 3992.88 ng/mL. Further, under setting [2], the time to peak (Tmax) was 15 min and 10 min. Besides, for the setting “individual male Sprague Dawley rat (Rat 1, 2, 3), samples 5 min to 24 hours”, the T1/2 is 31.18 min and 23.39 min and 27.79 min.
